Reference: patent publication US20190291112A1, “DROPLET MICROFLUIDICS FOR DRUG SCREENING” (University of Macau, priority 2018, published 2019)

Legend:
[1] = system: MDA-MB-231 cells; assay: On chip drug screening assay (ethidium homodimer 1 staining); format: cell-based, human; settings: for IC50: Homo sapiens
Method: (§1) Jurkat E6.1 cells (ATCC® TIB-152™) and MDA-MB-231 cells (ATCC® HTB-26™) were used as models for suspended and adherent cancer cell lines respectively. Jurkat cell line was derived from human acute T cell leukemia, whereas MDA-MB-231 cell line was derived from human metastatic breast adenocarcinoma.
On chip drug screening was performed using the PDMS-based microfluidic chip as described above. A 500 μL glass syringe (Hamilton, USA) and polytetrafluoroethylene (PTFE) tubings with appropriate bore (Cole Parmer, USA) was used to connect between the syringe pump (Harvard Apparatus PHD Ultra Syringe Pump, USA) and the microfluidic chip. Fluorinert® FC-40 (Sigma-Aldrich, USA) supplemented with 2% 008-Fluorosurfactant (Ran Biotechnologies, USA) was used as oil phase; relevant cell culture medium, supplemented with 1% (w/v) methyl cellulose (Sigma-Aldrich, USA) was used as aqueous phase. Cells treated with 0.1% dimethyl sulfoxide (DMSO) were used as negative control.
Briefly, cells at final concentrations of 1-2×10^6 cells per mL were aliquoted in 0.2 mL PCR tubes, then mixed with corresponding drugs and 2 μM ethidium homodimer 1 (Life Technologies, USA) by manual pipetting. Next, […], cell-drug mixtures were loaded into the tubing, consecutively segregated by oil phase at withdrawal rate of 200 μL/h by syringe pump. After loading all mixtures, the tubing was inserted into the microfluidic chip, which was back-flushed with oil phase at 500 μL/h by syringe pump. After that, the mixtures were infused at 25 μL/h by syringe pump. Finally, the inlet and outlet tubings were cut and sealed with Vaseline (Vaseline, USA). The chips were placed in 150 mm cell culture dish (Coming, USA) containing wet paper towels, and transferred to humidified incubator at 37° C. supplemented with 5% CO2 for 16-24 h incubation. Brightfield and red fluorescence images (Ex. 531/40 nm, Em. 593/40 nm) were taken under 10× magnification (Life Technologies EVOS FL Imaging System, USA).
For on chip assays, brightfield and red fluorescence images were initially processed by ImageJ v.1.50i, Cell counting was either performed manually or by Matlab v.R201.5a based on the workflow shown on FIG. 5B. Briefly, cells from brightfield and red fluorescence images were detected separately using a heuristic Hough Transformation model based on threshold implementation on circular diameter and pixel intensity. Next, each recognized cell was dissected into 10×10 pixels matrix for analysis of its pixel intensity. Subsequently, two layers of multi-radii analysis of pixel intensity around the center of each matrix distinguished signal from noise. Afterwards, cells were distinguished from noise based on the brightfield image, whereas cell viability was determined by signal intensity of corresponding red fluorescence image. Finally, positional information (defined by row: x, and column: y) and size (defined by radius: r) of discrete image matrix was used to classify each cell as “live” or “dead”. The total number of cells in each image corresponding to each droplet formation well on chip was summarized as a table in CSV format for calculation of cell viability. […]
For on chip assays, the number of cells was counted in brightfield and red fluorescence images from each well respectively. Cell viability was calculated as follows: […]
where Total cells and Dead cells referred to the total number of cells counted from brightfield and red fluorescence images, respectively. […]

[2] = system: Jurkat cells; assay: as above; format: cell-based, human
Method: Jurkat E6.1 cells (ATCC® TIB-152™) and MDA-MB-231 cells (ATCC® HTB-26™) were used as models for suspended and adherent cancer cell lines respectively. Jurkat cell line was derived from human acute T cell leukemia, whereas MDA-MB-231 cell line was derived from human metastatic breast adenocarcinoma. On chip drug screening was performed using the PDMS-based microfluidic chip as described above. A 500 μL glass syringe (Hamilton, USA) and polytetrafluoroethylene (PTFE) tubings with appropriate bore (Cole Parmer, USA) was used to connect between the syringe pump (Harvard Apparatus PHD Ultra Syringe Pump, USA) and the microfluidic chip. Fluorinert® FC-40 (Sigma-Aldrich, USA) supplemented with 2% 008-Fluorosurfactant (Ran Biotechnologies, USA) was used as oil phase; relevant cell culture medium, supplemented with 1% (w/v) methyl cellulose (Sigma-Aldrich, USA) was used as aqueous phase. Cells treated with 0.1% dimethyl sulfoxide (DMSO) were used as negative control. […] Next, […], cell-drug mixtures were loaded into the tubing, consecutively segregated by oil phase at withdrawal rate of 200 μL/h by syringe pump. After loading all mixtures, the tubing was inserted into the microfluidic chip, which was back-flushed with oil phase at 500 μL/h by syringe pump. After that, the mixtures were infused at 25 μL/h by syringe pump. Finally, the inlet and outlet tubings were cut and sealed with Vaseline (Vaseline, USA). […] Brightfield and red fluorescence images (Ex. 531/40 nm, Em. 593/40 nm) were taken under 10× magnification (Life Technologies EVOS FL Imaging System, USA). […] For on chip assays, the number of cells was counted in brightfield and red fluorescence images from each well respectively.

[3] = system: Jurkat cells; assay: 384-well microtiter plate drug screening assay (Alamar Blue); format: cell-based, human; settings: 384-well plate
Method: as §1
(§2) Microtiter plate drug screening assays were carried out on 96-well clear round flat-bottom plates (Corning, USA) or 384-well white square flat-bottom plates (Corning, USA).
(§3) First, 5.0×10^5 or 1.0×10^5 cells were seeded per well for 96-well and 384-well plates respectively. Drugs were diluted with Dulbecco's phosphate-buffered saline (DPBS) (Life Technologies, USA), and subsequently added to achieve final drug concentrations as indicated on the graphs. Afterwards, the plates were transferred to humidified incubator at 37° C. supplemented with 5% CO2 for 16-24 h incubation. Finally, Alamar Blue assay was used to measure cell viability. Fluorescence intensity (Ex. 560 nm, Em. 590 nm) using auto-cutoff was measured from bottom on plate reader (Molecular Devices SpectraMax MS Plate Reader, USA). Cells treated with 0.1% dimethyl sulfoxide (DMSO) were used as negative control, while no cells were added to blank control. All experiments were performed in triplicate for 96-well plates and in quadruplicates for 384-well relates.
(§4) For microliter plate assays, average relative fluorescence signal measured by plate reader from 6 reads of each well was used as raw data point. Cell viability was calculated as follows: […]
(§5) where Sample represented raw data points of each sample well, whereas DMSO control and Blank represented average raw data points of all DMSO control and Blank wells, respectively.

[4] = system: MDA-MB-231 cells; assay: as above; format: cell-based, human; settings: 384-well plate
Method: as §1, §2, §3, §4, §5

[5] = system: Jurkat cells; assay: 96-well microtiter plate drug screening assay (Alamar Blue); format: cell-based, human; settings: 96-well plate
Method: as §1, §2, §3, §4, §5

[6] = system: MDA-MB-231 cells; assay: as above; format: cell-based, human; settings: 96-well plate
Method: as §1, §2, §3, §4, §5

[7] = system: cancer cell lines; assay: Carrier fluid and surfactant optimization, cell viability on chip; format: cell-based; settings: surfactant, all tested concentrations
From the text: Firstly, we optimized the carrier fluid or oil phase to assure cell viability on chip for a minimum of 7 days for cancer cell lines. Commercial oils including Fluorinert® series oils, e.g. fluorocarbon oils, silicone oil, and mineral oil in combination with different surfactants (either mixed with oil phase or aqueous phase) at various concentrations have been tested. Among these, Fluorinert® FC-40 supplemented with 2% 008-Fluorosurfactant by Ran Biotechnologies provided optimal properties in terms of viscosity, volatility and droplet stability. Fluorosurfactant was added to prevent droplets from coalescence and cross-contamination of droplet contents when they touched each other (FIG. 6A). In addition, fluorosurfactant-emulsified droplets prevented fluorescent dye from adsorbing to the hydrophobic PDMS walls of the channel (FIG. 6B) or migrating into the oil phase (FIGS. 6C and 6D), in order to maintain constant drug concentrations in droplets. […] Droplets containing red fluorescent dye were incubated at 37° C. for 15 h, but no trace of fluorescent dye was observed along the PDMS walls as the droplet shrank due to evaporation. […]

[8] = system: cells; assay: Time-lapse imaging of cells incubated with viability indicator dye; format: cell-based; settings: 2 μM, within 48 h post-treatment
Method: Thirdly, different cell viability indicator dyes were tested for staining efficiency, indicator reliability and cytotoxicity on chip. Since the sample fluid was premixed before loading to the chip, we tested for different cell viability indicator dyes and variant concentrations to ensure that the indicator dye had no impact on cell viability, at least within the time frame of the drug susceptibility test. Eventually, ethidium homodimer 1 staining was adopted to indicate dead cells. Ethidium homodimer 1 is a cell-impermeable, high affinity nucleic acid stain emitting strong red fluorescence after binding to DNA. It gave strong red fluorescence after cells were treated with drug but not DMSO) (FIG. 12).

## COc1cccc2c1C(=O)c1c(O)c3c(c(O)c1C2=O)C[C@@](O)(C(=O)CO)C[C@@H]3O[C@H]1C[C@H](N)[C@@H](O)[C@H](C)O1 [epirubicin]
[1]
  IC50: 5500 nM
[1]; after reaching IC50
  cell viability leveled off: approximately 50%
[2]; Homo sapiens, 16-24 h
  IC50: 1000 to 2200 nM
[3]; Homo sapiens, 16-24 h
  IC50: 1000 to 2200 nM
[4]; Homo sapiens
  IC50: 500 nM
[5]; Homo sapiens, 16-24 h
  IC50: 1000 to 2200 nM
[6]; Homo sapiens
  IC50: 600 nM

## CCCCCCCCCCCCOS(=O)(=O)[O-].[Na+] [sodium dodecyl sulfate]
[7]
  effect on cell viability: compromised cell viability

## O=C(CCCCCCC(=O)Nc1ccccc1)NO [vorinostat]
[1]
  IC50: 33300 nM
[2]; all doses tested
  cell viability plateau: above 50%
[3]; all doses tested
  cell viability plateau: above 50%
[4]
  cell viability plateau: above 50%
[5]; all doses tested
  cell viability plateau: above 50%
[6]
  cell viability plateau: above 50%

## Triton X-100
[7]
  effect on cell viability: compromised cell viability

## ethidium homodimer 1
[8]
  effect on cell death and proliferation: did not affect cell death and proliferation
